According to ChEMBL document CHEMBL5247608, “HIV-1 gp120-CXCR4 recognition probed with synthetic nanomolar affinity D-peptides containing fragments of gp120 V3 loop” (Eur J Med Chem, 2022):
Activity calls are given as the source filed them. No cut-off for these calls is given here. Where a SMILES comes first, the peptide text is derived from it. [ ]: non-standard residue; d: D form.

Tests used:
[1] = molecular target: T1, C-X-C chemokine receptor type 4 (Homo sapiens, UniProt P61073); experiment: Displacement of 12G5 mAb from CXCR4 (unknown origin) expressed in CHO cells incubated for 40 mins by spectrophotometric method; assay type: cell-based
[2] = molecular target: C-C chemokine receptor type 5 (Homo sapiens) (UniProt P51681); experiment: Displacement of C-45523 from CCR5 (unknown origin) expressed in CHO cells at 50 uM incubated for 40 mins by competitive binding assay based spectrophotometric method; assay type: cell-based
[3] = Cytotoxicity against human PBMC assessed as reduction in cell viability at 0.016 to 10 uM incubated for 5 days by CellTiter-Blue assay; assay type: toxicity, cell-based; details: 120 h, dose 0.016-10 µM, time 5 day
[4] = test system: Human immunodeficiency virus 1; experiment: Antiviral activity against HIV-1 R5 Bal-6 infected in human PBMC assessed as inhibition of viral replication by measuring reduction in p24 antigen level at 0.1 to 10 uM measured after 5 days by ELISA; assay type: functional, organism-based; details: dose 0.1-10 µM, time 5.0 day
[5] = test system: Human immunodeficiency virus 1; experiment: Antiviral activity against HIV-1 X4 NL4-3 infected in human PBMC assessed as inhibition of viral replication by measuring reduction in p24 antigen level at 10 uM measured after 5 days by ELISA; assay type: functional, organism-based; details: time 5.0 day
[6] = test system: C-X-C chemokine receptor type 4 (Homo sapiens), P61073 [D97A]; experiment: Displacement of 12G5 mAb from CXCR4 D97A mutant (unknown origin) expressed in CHO cells at 500 nM incubated for 40 mins by spectrophotometric method; assay type: cell-based
[7] = molecular target: T1, C-X-C chemokine receptor type 4; experiment: Antagonist activity against CXCR4 in human SUP-T1 cells assessed as inhibition of SDF-1alpha-induced intracellular calcium mobilization at 10 uM by Fluo-4AM dye based fluorescence analysis; assay type: cell-based; details: filed as antagonist
[8] = test system: C-X-C chemokine receptor type 4 (Homo sapiens), P61073 [H113A]; experiment: Displacement of 12G5 mAb from CXCR4 H113A mutant (unknown origin) expressed in CHO cells at 500 nM incubated for 40 mins by spectrophotometric method; assay type: cell-based
[9] = test system: C-X-C chemokine receptor type 4 (Homo sapiens), P61073 [E288A]; experiment: Displacement of 12G5 mAb from CXCR4 E288A mutant (unknown origin) expressed in CHO cells at 500 nM incubated for 40 mins by spectrophotometric method; assay type: cell-based
[10] = test system: C-X-C chemokine receptor type 4 (Homo sapiens), P61073 [F87A]; experiment: Displacement of 12G5 mAb from CXCR4 F87A mutant (unknown origin) expressed in CHO cells at 500 nM incubated for 40 mins by spectrophotometric method; assay type: cell-based
[11] = test system: C-X-C chemokine receptor type 4 (Homo sapiens), P61073 [T117A]; experiment: Displacement of 12G5 mAb from CXCR4 T117A mutant (unknown origin) expressed in CHO cells at 500 nM incubated for 40 mins by spectrophotometric method; assay type: cell-based; details: filed as antagonist
[12] = molecular target: T1, C-X-C chemokine receptor type 4; experiment: Antagonist activity against CXCR4 in human SUP-T1 cells assessed as inhibition of SDF-1alpha-induced intracellular calcium mobilization by Fluo-4AM dye based fluorescence analysis; assay type: cell-based; details: filed as antagonist, dose 0.01-10 µM
[13] = molecular target: T1, C-X-C chemokine receptor type 4; experiment: Antagonist activity against EGFP-tagged CXCR4 (unknown origin) transfected in CHO cells assessed as inhibition of SDF-1alpha-induced receptor internalization at 0.01 to 10 uM preincubated for 10 mins followed by SDF-1alpha addition by confocal microscopy; assay type: cell-based; details: filed as antagonist, dose 0.01-10 µM
[14] = test system: C-X-C chemokine receptor type 4 (Homo sapiens), P61073 [Y116A]; experiment: Displacement of 12G5 mAb from CXCR4 Y116A mutant (unknown origin) expressed in CHO cells at 500 nM incubated for 40 mins by spectrophotometric method; assay type: cell-based
[15] = test system: C-X-C chemokine receptor type 4 (Homo sapiens), P61073 [W94A]; experiment: Displacement of 12G5 mAb from CXCR4 W94A mutant (unknown origin) expressed in CHO cells at 500 nM incubated for 40 mins by spectrophotometric method; assay type: cell-based
[16] = test system: C-X-C chemokine receptor type 4 (Homo sapiens), P61073 [E288D]; experiment: Displacement of 12G5 mAb from CXCR4 E288D mutant (unknown origin) expressed in CHO cells at 500 nM incubated for 40 mins by spectrophotometric method; assay type: cell-based
[17] = test system: C-X-C chemokine receptor type 4 (Homo sapiens), P61073 [D193A]; experiment: Displacement of 12G5 mAb from CXCR4 D193A mutant (unknown origin) expressed in CHO cells at 500 nM incubated for 40 mins by spectrophotometric method; assay type: cell-based
[18] = molecular target: T1, C-X-C chemokine receptor type 4; experiment: Antagonist activity against EGFP-tagged CXCR4 (unknown origin) transfected in CHO cells assessed as inhibition of SDF-1alpha-induced receptor internalization at 10 uM preincubated for 10 mins followed by SDF-1alpha addition by confocal microscopy; assay type: cell-based; details: filed as antagonist
[19] = test system: C-X-C chemokine receptor type 4 (Homo sapiens), P61073 [D262N]; experiment: Displacement of 12G5 mAb from CXCR4 D262N mutant (unknown origin) expressed in CHO cells at 500 nM incubated for 40 mins by spectrophotometric method; assay type: cell-based; details: filed as antagonist
[20] = molecular target: T1, C-X-C chemokine receptor type 4; experiment: Antagonist activity against CXCR4 in human SUP-T1 cells assessed as inhibition of SDF-1alpha-induced cell migration preincubated with cells for 30 mins followed by incubation with SDF-1alpha for 3 hrs by CellTiter-96 reagent based transwell assay; details: filed as antagonist, time 210.0 min
[21] = test system: C-X-C chemokine receptor type 4 (Homo sapiens), P61073 [N119A]; experiment: Displacement of 12G5 mAb from CXCR4 N119A mutant (unknown origin) expressed in CHO cells at 500 nM incubated for 40 mins by spectrophotometric method; assay type: cell-based
[22] = test system: C-X-C chemokine receptor type 4 (Homo sapiens), P61073 [W161A]; experiment: Displacement of 12G5 mAb from CXCR4 W161A mutant (unknown origin) expressed in CHO cells at 500 nM incubated for 40 mins by spectrophotometric method; assay type: cell-based
[23] = test system: C-X-C chemokine receptor type 4 (Homo sapiens), P61073 [W195A]; experiment: Displacement of 12G5 mAb from CXCR4 W195A mutant (unknown origin) expressed in CHO cells at 500 nM incubated for 40 mins by spectrophotometric method; assay type: cell-based
[24] = test system: C-X-C chemokine receptor type 4 (Homo sapiens), P61073 [Y45A]; experiment: Displacement of 12G5 mAb from CXCR4 Y45A mutant (unknown origin) expressed in CHO cells at 500 nM incubated for 40 mins by spectrophotometric method; assay type: cell-based; details: filed as antagonist
[25] = test system: C-X-C chemokine receptor type 4 (Homo sapiens), P61073 [E288Q]; experiment: Displacement of 12G5 mAb from CXCR4 E288Q mutant (unknown origin) expressed in CHO cells at 500 nM incubated for 40 mins by spectrophotometric method; assay type: cell-based; details: filed as antagonist
[26] = molecular target: T1, C-X-C chemokine receptor type 4; experiment: Antagonist activity against CXCR4 in human SUP-T1 cells assessed as inhibition of SDF-1alpha-induced cell migration at 10 uM preincubated with cells for 30 mins followed by incubation with SDF-1alpha for 3 hrs by CellTiter-96 reagent based transwell assay; details: filed as antagonist, time 210.0 min

T1 sequence (P61073 whole entry): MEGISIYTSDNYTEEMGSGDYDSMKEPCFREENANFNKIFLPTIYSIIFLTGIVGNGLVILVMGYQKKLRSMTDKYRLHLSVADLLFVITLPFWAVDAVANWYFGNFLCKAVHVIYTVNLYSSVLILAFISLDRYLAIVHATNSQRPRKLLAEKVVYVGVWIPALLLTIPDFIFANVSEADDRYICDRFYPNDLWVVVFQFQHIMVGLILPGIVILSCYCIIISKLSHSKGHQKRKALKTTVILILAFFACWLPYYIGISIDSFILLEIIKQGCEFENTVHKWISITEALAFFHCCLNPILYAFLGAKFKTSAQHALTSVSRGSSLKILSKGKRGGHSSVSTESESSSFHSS
Chain of C-C chemokine receptor type 5 (Homo sapiens) (P51681 whole entry, looked up): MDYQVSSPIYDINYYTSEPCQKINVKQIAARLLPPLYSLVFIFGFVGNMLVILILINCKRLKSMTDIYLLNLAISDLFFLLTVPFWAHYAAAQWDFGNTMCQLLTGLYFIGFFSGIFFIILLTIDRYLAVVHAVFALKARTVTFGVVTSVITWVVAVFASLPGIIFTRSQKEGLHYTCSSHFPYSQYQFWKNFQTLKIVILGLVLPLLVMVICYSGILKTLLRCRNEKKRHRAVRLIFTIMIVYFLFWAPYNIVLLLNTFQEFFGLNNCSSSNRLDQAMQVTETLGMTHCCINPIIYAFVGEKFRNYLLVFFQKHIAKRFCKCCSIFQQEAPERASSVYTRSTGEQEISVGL
Chain of C-X-C chemokine receptor type 4 (Homo sapiens), P61073 [F87A] (P61073 whole entry F87A): as the sequence (P61073 whole entry) above, with F87A counted along it
Chain of C-X-C chemokine receptor type 4 (Homo sapiens), P61073 [W161A] (P61073 whole entry W161A): as the sequence (P61073 whole entry) above, with W161A counted along it
Chain of C-X-C chemokine receptor type 4 (Homo sapiens), P61073 [H113A] (P61073 whole entry H113A): as the sequence (P61073 whole entry) above, with H113A counted along it
Chain of C-X-C chemokine receptor type 4 (Homo sapiens), P61073 [E288A] (P61073 whole entry E288A): as the sequence (P61073 whole entry) above, with E288A counted along it
Chain of C-X-C chemokine receptor type 4 (Homo sapiens), P61073 [D193A] (P61073 whole entry D193A): as the sequence (P61073 whole entry) above, with D193A counted along it
Chain of C-X-C chemokine receptor type 4 (Homo sapiens), P61073 [Y45A] (P61073 whole entry Y45A): as the sequence (P61073 whole entry) above, with Y45A counted along it
Chain of C-X-C chemokine receptor type 4 (Homo sapiens), P61073 [W195A] (P61073 whole entry W195A): as the sequence (P61073 whole entry) above, with W195A counted along it
Chain of C-X-C chemokine receptor type 4 (Homo sapiens), P61073 [Y116A] (P61073 whole entry Y116A): as the sequence (P61073 whole entry) above, with Y116A counted along it
Chain of C-X-C chemokine receptor type 4 (Homo sapiens), P61073 [N119A] (P61073 whole entry N119A): as the sequence (P61073 whole entry) above, with N119A counted along it
Chain of C-X-C chemokine receptor type 4 (Homo sapiens), P61073 [W94A] (P61073 whole entry W94A): as the sequence (P61073 whole entry) above, with W94A counted along it
Chain of C-X-C chemokine receptor type 4 (Homo sapiens), P61073 [E288Q] (P61073 whole entry E288Q): as the sequence (P61073 whole entry) above, with E288Q counted along it
Chain of C-X-C chemokine receptor type 4 (Homo sapiens), P61073 [E288D] (P61073 whole entry E288D): as the sequence (P61073 whole entry) above, with E288D counted along it
Chain of C-X-C chemokine receptor type 4 (Homo sapiens), P61073 [D97A] (P61073 whole entry D97A): as the sequence (P61073 whole entry) above, with D97A counted along it
Chain of C-X-C chemokine receptor type 4 (Homo sapiens), P61073 [T117A] (P61073 whole entry T117A): as the sequence (P61073 whole entry) above, with T117A counted along it
Chain of C-X-C chemokine receptor type 4 (Homo sapiens), P61073 [D262N] (P61073 whole entry D262N): as the sequence (P61073 whole entry) above, with D262N counted along it

`CC(C)C[C@@H](N)C(=O)NCC(=O)N[C@H](C)C(=O)N[C@H](CO)C(=O)N[C@H](Cc1c[nH]c2ccccc12)C(=O)N[C@H](Cc1cnc[nH]1)C(=O)N[C@H](CCCNC(=N)N)C(=O)N1CCC[C@@H]1C(=O)N[C@H](CC(=O)O)C(=O)N[C@H](CCCCN)C(=O)N[C@H](CCCCN)C(=O)N[C@H](CCCNC(=N)N)C(=O)N(CCCCCC(=O)O)[C@@H](CCCCN)C(=O)N[C@@H](CCCNC(=N)N)C(=O)N[C@@H](CCCCN)C(=O)N[C@H](CS)C(=O)N[C@H](C(=O)N[C@@H](CCCNC(=N)N)C(=O)N1CCC[C@H]1C(=O)N[C@@H](CC(N)=O)C(=O)N[C@@H](CC(N)=O)C(=O)N[C@@H](CC(N)=O)C(=O)N[C@H](C(N)=O)[C@H](C)O)[C@H](C)O` gave an IC50 [1] of 48 nM and an inhibition [2] of 10.4%.
With `CC(C)C[C@@H](N)C(=O)NCC(=O)N[C@H](C)C(=O)N[C@H](CO)C(=O)N[C@H](Cc1c[nH]c2ccccc12)C(=O)N[C@H](Cc1cnc[nH]1)C(=O)N[C@H](CCCNC(=N)N)C(=O)N1CCC[C@@H]1C(=O)N[C@H](CC(=O)O)C(=O)N[C@H](CCCCN)C(=O)N[C@H](CCCCN)C(=O)N[C@H](CCCNC(=N)N)C(=O)N(CCCCCC(=O)O)[C@@H](CCCCN[C@H](CS)C(=O)N[C@H](C(=O)N[C@@H](CCCNC(=N)N)C(=O)N1CCC[C@H]1C(=O)N[C@@H](CC(N)=O)C(=O)N[C@@H](CC(N)=O)C(=O)N[C@@H](CC(N)=O)C(=O)N[C@H](C(=O)N[C@@H](CCCCN)C(=O)N[C@@H](CCCNC(=N)N)C(N)=O)[C@H](C)O)[C@H](C)O)C(N)=O` the Activity [3] was “Non-Toxic”, the Activity [4] was “inactive” and the Activity [5] was “Active”. It also gave an IC50 [1] of 25.4 nM.
With `CC(C)C[C@@H](N)C(=O)NCC(=O)N[C@H](C)C(=O)N[C@H](CO)C(=O)N[C@H](Cc1c[nH]c2ccccc12)C(=O)N[C@H](Cc1cnc[nH]1)C(=O)N[C@H](CCCNC(=N)N)C(=O)N1CCC[C@@H]1C(=O)N[C@H](CC(=O)O)C(=O)N[C@H](CCCCN)C(=O)N[C@H](CCCCN)C(=O)N[C@H](CCCNC(=N)N)C(=O)N(CCCCCC(=O)O)[C@@H](CCCCN)C(=O)N[C@@H](CCCNC(=N)N)C(=O)N[C@@H](CCCCN)C(=O)N[C@@H](CCC(N)=O)C(=O)N[C@@H](CCCNC(=N)N)C(=O)NCC(=O)N1CCC[C@H]1C(=O)NCC(=O)N[C@@H](CCCNC(=N)N)C(=O)N[C@@H](C)C(=O)N[C@@H](Cc1ccccc1)C(N)=O` the Activity [3] was “Non-Toxic”, the Activity [4] was “inactive” and the inhibition [6] was “inactive”. For the same compound, the inhibition [7] was 100%, the inhibition [8] was “inactive” and the inhibition [9] was “inactive”. For the same compound, the inhibition [10] was “inactive”, the Activity [5] was “Active” and the inhibition [11] was “Active”. The inhibition [12] was “Dose-Dependent Effect”, the inhibition [13] was “Active” and the inhibition [14] was “inactive”. For the same compound, the inhibition [15] was “inactive”, the inhibition [16] was “inactive” and the inhibition [17] was “inactive”. The inhibition [18] was 100%, the inhibition [19] was “Active” and the inhibition [20] was “Dose-Dependent Effect”. The inhibition [2] was 17.2%, the inhibition [21] was “inactive” and the inhibition [22] was “inactive”. For the same compound, the inhibition [23] was “inactive”, the inhibition [24] was “Active” and the inhibition [25] was “Active”. It also gave an inhibition [26] of 100%.
Compound `CC(C)C[C@@H](N)C(=O)NCC(=O)N[C@H](C)C(=O)N[C@H](CO)C(=O)N[C@H](Cc1c[nH]c2ccccc12)C(=O)N[C@H](Cc1cnc[nH]1)C(=O)N[C@H](CCCNC(=N)N)C(=O)N1CCC[C@@H]1C(=O)N[C@H](CC(=O)O)C(=O)N[C@H](CCCCN)C(=O)N[C@H](CCCCN)C(=O)N[C@H](CCCNC(=N)N)C(N)=O` (H-[dL]G[dA][dS][dW][dH][dR][dP][dD][dK][dK][dR]-NH2) has an IC50 [1] of 531 nM.
